The values that follow come from patent US11691962B2 (eXIthera Pharmaceuticals, Inc., priority 2018, dated 2023).

The term solubility denotes how much of the substance goes into solution per volume. For orientation: Papp A→B means how fast a substance crosses the layer from the apical side. A high value points to ready permeation. In general, Papp B→A refers to the apparent permeability from the basolateral to the apical side of a cell layer.

One data set has as its system Trypsin. The data set can be described thus: Dose response assay for protease inhibitors: trypsin. It is filed as biochemical. As to conditions: selectivity, trypsin over Factor XIa. A digest of the protocol: (§1)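 Fluorogenic AMC-peptide cleavage in 20 mM Hepes pH 7.4, 150 mM NaCl, 0.02% Tween 20; 100 μM stock substrate dilution (Glp-Pro-Arg-AMC for thrombin/trypsin; Pro-Phe-Arg-AMC or Boc-Leu-Gly-Arg-AMC for Factor Xa). Enzyme diluted to 0.5 nM, added last to two-fold compound series; kinetic read at 30° C, 30 min (Factor Xa 60 min); IC50 fitted.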

A short description of data set [1]: Aqueous solubility in PBS by HPLC-UV/VIS. The conditions noted are these: phosphate buffered saline, aqueous buffer, kinetic from dmso stock; PBS pH 7.4, 2% DMSO, 24 h at room temperature. The format is physicochemical. A digest of the protocol: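 Compound diluted to 200 μM in PBS pH 7.4 from DMSO stock (2% DMSO final), incubated 24 h at room temperature, then centrifuged. Supernatant analysed by HPLC-UV/VIS; solubility (μM) from principal-peak area versus a 200 μM calibration standard. Range approximately 0.5–200 μM.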

Another data set has as its target Factor Xa (Homo sapiens (Human), UniProt P00742). The data set can be described thus: Dose response assay for protease inhibitors: Factor Xa. The conditions noted are these: selectivity, Factor Xa over Factor XIa. It is filed as biochemical. A digest of the protocol: as §1
Data set [2] can be described thus: Caco-2 cell permeability assay. It is filed as in vitro ADME, human. As to conditions: human, 37° C.; for Papp A→B at 60 min, 10 μM: Caco-2, apical to basolateral; for Papp B→A at 40 min, 10 μM: Caco-2, basolateral to apical. A digest of the protocol:
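Caco-2 monolayers (days 21-25 post-seeding) received 10 μM compound in HBSS-MES pH 6.5 or HBSS-HEPES pH 7.4 (1% DMSO) at 37 °C, for 60 min A-B or 40 min B-A. Donor and receiver samples were quantified by HPLC-MS/MS (SRM), and Papp and recovery were calculated.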
Background: Passage across Caco-2 layers is used to estimate intestinal permeability.

For a further data set, the target named is Thrombin (Homo sapiens (Human), UniProt P00734). Put plainly: Dose response assay for protease inhibitors: thrombin. As to conditions: selectivity, thrombin over Factor XIa. It is filed as biochemical. A digest of the protocol:
as §1

Each structure is given as a SMILES string.

Factor Xa, sequence (P00742 235-488): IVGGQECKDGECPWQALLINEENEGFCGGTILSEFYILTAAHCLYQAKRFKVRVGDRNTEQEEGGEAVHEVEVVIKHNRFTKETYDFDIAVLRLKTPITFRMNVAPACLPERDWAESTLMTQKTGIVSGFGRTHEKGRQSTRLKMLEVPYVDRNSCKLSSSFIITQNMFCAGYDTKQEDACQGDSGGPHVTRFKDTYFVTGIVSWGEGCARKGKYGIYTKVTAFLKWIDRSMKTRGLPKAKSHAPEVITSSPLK
Factor Xa, sequence (P00742 41-179 partner): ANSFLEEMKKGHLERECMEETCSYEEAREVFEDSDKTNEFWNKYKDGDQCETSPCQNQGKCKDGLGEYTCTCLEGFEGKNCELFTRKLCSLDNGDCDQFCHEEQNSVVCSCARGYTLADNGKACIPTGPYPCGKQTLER

For `CC[C@@H](NC(=O)N1C(=O)[C@H](Cc2cc(C)nc(N)c2)[C@H]1C(=O)N(C)c1ccnn1C)c1ccc(C)c(C)c1` [Compound 1-152, (2S,3R)-3-((2-amino-6-methylpyridin-4-yl)methyl)-N2-(1-methyl-1H-pyrazol-5-yl)-N1-((R)-1-(3,4-dimethylphenyl)propyl)-N2-methyl-4-oxoazetidine-1,2-dicarboxamide], the “Ratio: Trypsin/FXIa” value with Trypsin is recorded as “G (“G” indicates 1-100)”. Further, in data set [1], the solubility at 24 h was above 100 µM. The “Ratio: FXa/FXIa” value at Factor Xa was “I (“I” indicates > 500)”. In data set [2], this compound registered a Papp A→B at 60 min, 10 μM below 10 ×10⁻⁶ cm/s and a Papp B→A at 40 min, 10 μM of 11 to 30 ×10⁻⁶ cm/s. The “Ratio: Thrombin/FXIa” value at Thrombin is listed as “I (“I” indicates > 500)”.
`CC[C@@H](NC(=O)N1C(=O)[C@H](Cc2cc(C)nc(N)c2)[C@H]1C(=O)N(C)c1ccnn1C)c1ccc(C)c(F)c1` [Compound 1-155, (2S,3R)-3-((2-amino-6-methylpyridin-4-yl)methyl)-N2-(1-methyl-1H-pyrazol-5-yl)-N1-((R)-1-(3-fluoro-4-methylphenyl)propyl)-N2-methyl-4-oxoazetidine-1,2-dicarboxamide]: in the data set with Trypsin, the “Ratio: Trypsin/FXIa” value is “G (“G” indicates 1-100)”. In data set [1], this compound had a solubility at 24 h above 100 µM. For the same compound, the “Ratio: FXa/FXIa” value at Factor Xa is “I (“I” indicates > 500)”. In addition, in data set [2], the Papp A→B at 60 min, 10 μM was below 10 ×10⁻⁶ cm/s and the Papp B→A at 40 min, 10 μM was 11 to 30 ×10⁻⁶ cm/s. Moreover, the “Ratio: Thrombin/FXIa” value at Thrombin is “I (“I” indicates > 500)”.
On to `CC[C@@H](NC(=O)N1C(=O)[C@H](Cc2cc(C)nc(N)c2)[C@H]1C(=O)N(C)c1ccnn1C)c1ccc(F)c(F)c1` [Compound 1-158, (2S,3R)-3-((2-amino-6-methylpyridin-4-yl)methyl)-N2-(1-methyl-1H-pyrazol-5-yl)-N1-((R)-1-(3,4-difluorophenyl)propyl)-N2-methyl-4-oxoazetidine-1,2-dicarboxamide], for which the “Ratio: Trypsin/FXIa” value with Trypsin was “G (“G” indicates 1-100)”. In data set [1], the solubility at 24 h was above 100 µM. In addition, the “Ratio: FXa/FXIa” value on Factor Xa is reported as “I (“I” indicates > 500)”. In data set [2], this compound displayed a Papp A→B at 60 min, 10 μM below 10 ×10⁻⁶ cm/s and a Papp B→A at 40 min, 10 μM of 11 to 30 ×10⁻⁶ cm/s. Also, the “Ratio: Thrombin/FXIa” value at Thrombin is reported as “I (“I” indicates > 500)”.
